Reference: patent publication US9505735B2, “Compounds for treating infectious diseases” (Whitehead Institute for Biomedical Research, priority 2012, dated 2016)
Where “and” joins values, the source holds several entries; their conditions need not be identical. Identical values can stand only once. Like-named read-outs stand apart in the source and are kept apart here.

How the values were obtained:
PIG-W = target: T1, PIG-W (Homo sapiens, UniProt Q7Z7B1); test: Growth of S. cerevisiae strain whose GWT1 is replaced by the human gene PIG-W; type: cell-based
T1 construct: expressed in transfected cells; host or cells: S. cerevisiae BY4741-derived gwt1 deletion shuttle strain carrying a pAG415GPD-based PIG-W plasmid
T1 sequence (Q7Z7B1 1-504): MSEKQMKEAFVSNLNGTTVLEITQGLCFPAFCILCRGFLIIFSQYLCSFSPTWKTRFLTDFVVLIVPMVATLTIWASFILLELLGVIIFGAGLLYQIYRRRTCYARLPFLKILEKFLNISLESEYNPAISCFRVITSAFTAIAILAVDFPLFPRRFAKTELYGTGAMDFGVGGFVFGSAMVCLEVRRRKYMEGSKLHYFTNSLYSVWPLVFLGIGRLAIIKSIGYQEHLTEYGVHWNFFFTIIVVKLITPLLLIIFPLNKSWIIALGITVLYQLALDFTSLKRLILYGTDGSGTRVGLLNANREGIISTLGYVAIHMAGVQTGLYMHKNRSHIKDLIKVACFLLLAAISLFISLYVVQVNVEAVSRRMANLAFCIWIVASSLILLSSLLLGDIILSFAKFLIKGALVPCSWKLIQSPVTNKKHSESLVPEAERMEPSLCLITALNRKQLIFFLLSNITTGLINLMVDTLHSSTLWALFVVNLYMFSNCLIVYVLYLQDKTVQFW
Description: (§1) Sensitivity to gepinacin was determined in 96-well, flat bottom microtiter plates using a modification of the NCCLS broth microdilution protocol CLS M27-A3 and RPMI as culture medium. Fungi were inoculated at ˜10^3 cells per ml and incubated for 48 hours at 37° C. after which plates were sealed, shaken and the optical density read at 600 nm (OD600) on a Tecan Safire 2 plate reader. All samples were run in duplicate or triplicate and assays were repeated at least once. Results are expressed as fraction of growth in the absence of compound and the mean and standard deviation are plotted. For the mold A. terreus, inoculum was 10^4 cells per ml and plates were incubated at 35° C. for 48 hours in the dark. Plates were then visually scored as specified by CLSI document M38-A2 to determine the MIC50 and MIC80.
Because GWT1 deletion is lethal in S. cerevisiae strain BY4741, a haploid shuttle strain was constructed in which the genomic copy of GWT1 was deleted and replaced by GWT1 on a plasmid that also encoded the URA3 gene and a G418-resistance gene. […]
An S. cerevesiae strain was generated in which the endogenous Gwt1 gene was deleted. […] Shown in FIGS. 22A-D show the effect of the indicated compounds on growth (assessed by OD600) and viability (assessed using Bactiter Glo) of the yeast strain with high copy or low copy plasmid containing S. cerevesiae Gwt1. […]

Gwt1 = target: T2, Gwt1 (Saccharomyces cerevisiae, UniProt P47026); test: Antifungal susceptibility testing, screening strains with plasmid-borne GWT1 (low or high copy); type: cell-based, S. cerevisiae
T2 construct: Wildtype S. cerevisiae BY4741; endogenous in cells; host or cells: S. cerevisiae BY4741 (wild type)
T2 sequence (P47026 1-490): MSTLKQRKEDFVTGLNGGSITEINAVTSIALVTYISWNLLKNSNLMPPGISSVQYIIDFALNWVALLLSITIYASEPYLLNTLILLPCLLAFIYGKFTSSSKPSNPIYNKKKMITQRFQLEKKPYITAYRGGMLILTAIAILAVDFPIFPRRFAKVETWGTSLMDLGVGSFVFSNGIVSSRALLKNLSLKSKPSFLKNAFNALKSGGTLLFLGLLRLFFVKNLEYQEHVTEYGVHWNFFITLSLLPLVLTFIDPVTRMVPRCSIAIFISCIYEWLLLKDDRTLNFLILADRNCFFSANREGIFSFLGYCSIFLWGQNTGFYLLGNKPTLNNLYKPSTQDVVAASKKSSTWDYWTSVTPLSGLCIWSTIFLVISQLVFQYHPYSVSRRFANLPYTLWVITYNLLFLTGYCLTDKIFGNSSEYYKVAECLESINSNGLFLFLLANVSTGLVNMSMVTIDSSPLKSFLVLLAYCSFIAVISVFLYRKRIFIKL
Description: as §1
Because GWT1 deletion is lethal in S. cerevisiae strain BY4741, a haploid shuttle strain was constructed in which the genomic copy of GWT1 was deleted and replaced by GWT1 on a plasmid that also encoded the URA3 gene and a G418-resistance gene. To construct this shuttle strain a gwt1Δ/GWT1 heterozygous deletion mutant was transformed with pAGGPD416-GWT1, sporulated and dissected. A colony was selected that grew on both SD-URA and G418-containing plates. PCR with the deletion specific primers (http://wwwsequence.stanford.edu/group/yeast_deletion_project/deletions3.html) was performed to confirm the GWT1 deletion. To change the source of GWT, this shuttle strain was transformed with plasmids containing GWT1 (as a control) or PIG-W and the LEU2 auxotrophy gene followed by selection for growth on SD-LEU plates. Plasmids were constructed by conventional Gateway technology using a GWT1 encoding entry vector and either pAG415GPDccdB or pAG425GPDccdB as the destination vectors. Positive colonies were selected and grown on 5-fluoroorotic acid (5-FOA)-containing plates to promote loss of the pAGGPD416-GWT1 plasmid. The colonies from this plate were then tested for return of uridine auxotrophy to confirm pAGGPD416-GWT1 loss. The PIG-W expression vector was constructed by recombination in yeast as follows. The pAG415GPDccdB vector was cut with Xho1 and Xba1 and the larger piece was gel and column purified. The coding sequence of PIG-W was PCR amplified from the entry clone so that it would have ends facilitating recombination with the cut vector. The shuttle strain was then transformed with these two DNA fragments and plated on SD-LEU plates to select for recombinants. PIG-W plasmid was isolated from the final strain and sequence verified.
(§2) The following gepinacin analogs were tested for activity against Gwt1. Gepinacin, M3, CM2, CM4, CM6, CM7, CM8, and 857621-56-8 were available commercially. The compounds were tested using the “Antifungal Susceptibility Testing” protocol described above. Fungi tested are described in the “Fungal Strains” section above.
An S. cerevesiae strain was generated in which the endogenous Gwt1 gene was deleted. Plasmids (either high copy or low copy) with either S. cerevesiae or human Gwt1 were introduced to produce strains bearing such plasmids expressing either S. cerevesiae or human Gwt1 from a constitutive promoter. Yeast strains were cultured in liquid media in the presence of indicated compounds. Shown in FIGS. 22A-D show the effect of the indicated compounds on growth (assessed by OD600) and viability (assessed using Bactiter Glo) of the yeast strain with high copy or low copy plasmid containing S. cerevesiae Gwt1. The compounds had no effect on strains with the human Gwt1, thus showing the compounds' sensitivity for the fungal (yeast) Gwt1 gene.

[1] = tested on: unfolded protein response; test: Unfolded protein response GFP reporter (UPRE-GFP), flow cytometry; type: cell-based, S. cerevisiae; settings: 5 hours
Description: Induction of the unfolded protein response in cells carrying a GFP reporter construct was monitored by flow cytometry after exposure to serial dilutions of the indicated compounds for 5 hrs.
The plasmid pRS304-4XUPRE-GFP was linearized and integrated into the TRP1 locus of S. cerevisiae (W303) to construct a reporter strain as previously described (Cox, et al. (1993) Cell 73, 1197-1206; Pollard, et al. (1998) Mol Cell 1, 171-182). Reporter cells were grown to log phase and exposed to compound at 23° C. for 5 hours before analysis. GFP reporter induction was monitored on a Guava EasyCyte Plus cytometer. The average mean channel fluorescence of duplicate samples was determined, and the experiment was performed twice with similar results.

Gas1 and CPY maturation = test: Protein trafficking analysis (immunoblot of reporter proteins); type: cell-based, S. cerevisiae; settings: 10 μM, 1 hour
Description: (§3) (A) Immunoblots of lysates prepared from S. cerevisiae treated with gepinacin showing GPI-anchor-selective impairment of protein maturation. The unprocessed (u), precursor (p), and mature (m) forms of the reporter proteins are indicated. The identity of the tagged reporter proteins (top of panel) and the antibodies used for their detection (bottom of panel) are also indicated. Treatment conditions are DMSO (0.05%), gepinacin (GPN, 10 μM) or tunicamycin (Tun, 10 μM). The same lysate was used for both blots. […] GFP expression was monitored by flow cytometry. (C) Anti-fungal susceptibility testing of strains deleted for IRE1 (activator of the UPR) or HAC1 (effector of the UPR) showing their increased sensitivity to gepinacin.
HA-tagged GAS1 was expressed in strain BY4741 CPY-GFP (Yeast GFP collection (Huh, et al. (2003) Nature 425, 686-691) under control of its own promoter using plasmid pCM-HA-GAS1. This construct was created as previously reported except in a gateway plasmid backbone (Fujita, et al. (2006) Mol Biol Cell 17, 834-850). To assess effects on trafficking, strains were incubated for 1 hour at 30° C. with test compounds. Total cellular protein (5 μg) was separated by electrophoresis (Invitrogen 8% gels) and transferred to nitrocellulose membranes. Blots were hybridized with antibodies against HA (Covance), GFP (Roche), or CPY (Invitrogen). Sizes for the various post-translationally modified products of Gas1HA2 and CPY have been previously reported (Fujita, et al. (2006) Mol Biol Cell 17, 834-850). CPY-GFP was used to facilitate discrimination of CPY processing steps because GFP is cleaved from CPY in the yeast vacuole. The experiment, however, was also performed with untagged CPY with the same results.

[2] = tested on: S. cerevisiae strains deleted for IRE1 or HAC1; test: Antifungal susceptibility testing of UPR-deficient strains; type: cell-based; settings: 48 hour
Description: as §3
Anti-fungal susceptibility testing of strains bearing deletion of IRE1 (activator of the UPR) or HAC1 (effector of the UPR) using either […] (A) or fluconazole (B). Growth was measured by OD600 after 48 hour exposure to serial dilutions of the compounds as indicated. Results are expressed as a fraction of the OD600 measured in the absence of gepinacin. The mean and standard deviation of triplicate determinations are shown.

[3] = tested on: Wildtype S. cerevisiae BY4741; test: Antifungal susceptibility testing, wildtype yeast; type: cell-based; settings: Saccharomyces cerevisiae, read-out: EC50 Avg
Description: Archives of all strains were maintained in 25% glycerol at −80° C. Standard S. cerevisiae lab strains W303, BY4741, BY4742 and BY4743 were used for experiments. The C. albicans wild type strain in FIG. 1 was CaI4, a standard laboratory strain (Fonzi, et al. (1993) Genetics 134, 717-728). The C. albicans fluconazole-resistant strains CaCi-2, CaCi-8 and CaCi17 were generously provided by Ted White and originally collected by Spencer Redding and colleagues (White, (1997) Antimicrob Agents Chemother 41, 1488-1494; White, (1997) Antimicrob Agents Chemother 41, 1482-1487; White, et al. (1997) Oral Dis 3 Suppl 1, S102-109). The sequenced C. albicans wild type strain, Sc5314 (Gillum, et al. (1984) Mol Gen Genet 198, 179-182) used in P-glucan experiments was a gift from John Perfect's lab. CaAmphR, an amphotericin B-resistant strain is from ATCC (#20095). Caspofungin-resistant strain Cfr1 was derived by plating Sc5314 on caspofungin plates and isolating resistant colonies. A. terreus was purchased from ATCC (MYA-3633). The C. glabrata strain CgL5c was obtained from John Bennett's lab. The YKO heterozygous diploid strain collection is from Open Biosystems and was generated in BY4743. Haploid deletion strains were from the Yeast Knock-out Deletion Collection and purchased from Invitrogen. The over-expression library was made by transforming BY4741 with the Harvard Institute of Proteomics Flexgene library.
as §1, §2

[4] = EC50 High Copy GWT1, Screening strains, high copy GWT1 plasmid
[5] = EC50 Low Copy GWT1, Screening strains, low copy GWT1 plasmid

Row | Molecule | activation of the unfolded protein response (GFP reporter) [1] | EC50 (Gwt1; [4]) | EC50 (Gwt1; [5]) [µM] | further results
1 | COc1ccc(NC(=O)C(C)Oc2cccc(OCc3ccccc3)c2)cc1 (stereo not drawn) [MAZ1844] | – | – | – | activity against PigW / in the PIG-W expressing strain (PIG-W): active; activity against Gwt1 (Gwt1): not Gwt1
2 | tunicamycin [reference compound] | Strong induction | – | – | CPY (not GPI-anchored) processing (Gas1 and CPY maturation): alters the processing of both proteins; Gas1 (GPI-anchored) maturation: mature versus precursor form (Gas1 and CPY maturation): alters the processing of both proteins
3 | C[C@@H]1[C@H](O)[C@@H](C)/C=C/C=C/C=C/C=C/C=C/C=C/C=C/[C@H](O[C@@H]2O[C@H](C)[C@@H](O)[C@H](N)[C@@H]2O)C[C@@H]2O[C@](O)(C[C@@H](O)C[C@@H](O)[C@H](O)CC[C@@H](O)C[C@@H](O)CC(=O)O[C@H]1C)C[C@H](O)[C@H]2C(=O)O [amphotericin B] | not seen | – | – | –
4 | COc1ccc(NC(=O)COc2cccc(Oc3ccccn3)c2)cc1 [MAZ1859] | – | 7.2 µM | 4.9 | –
5 | OC(Cn1cncn1)(Cn1cncn1)c1ccc(F)cc1F [fluconazole, reference compound] | not seen | – | – | change of toxicity by deletion of HAC1 or IRE1 [2]: completely unaffected
6 | CC(C)COc1cccc(OCC(=O)Nc2ccc(N(C)C)cc2)c1 [CM3] | – | – | – | EC50 [3]: 18.2 µM
7 | COc1ccc(NC(=O)COc2cccc(OCC(C)C)c2)cc1 [LW16] | – | 1.17 µM and 1.89 µM and 8.6 µM | – | EC50 ([3]; Wildtype S. cerevisiae BY4741): 2.9 µM
8 | COc1ccc(NC(=O)COc2cccc(OCc3ccccc3)c2)cc1 [MAZ1857] | – | 268 µM | 177 | –
9 | COc1ccc(NC(=O)COc2cccc(OCCC(C)C)c2)cc1 [CM7] | – | 6.2 µM | 1.31 | EC50 ([3]; Wildtype S. cerevisiae BY4741): 2.65 µM
10 | COc1ccc(NC(=O)C(C)Oc2cccc(OCC(C)C)c2)cc1 (stereo not drawn) [MAZ1855] | – | 93.1 µM | 12.8 | –
11 | CC(C)COc1cccc(OCC(=O)Nc2ccc(F)cc2)c1 [CM2] | – | 3.07 µM | 1.16 | EC50 ([3]; Wildtype S. cerevisiae BY4741): 7.05 µM
12 | CC[C@H](C)C[C@H](C)CCCCCCCCC(=O)N[C@H]1C[C@@H](O)[C@@H](NCCN)NC(=O)[C@@H]2[C@@H](O)CCN2C(=O)[C@H]([C@H](O)CCN)NC(=O)[C@H]([C@H](O)[C@@H](O)c2ccc(O)cc2)NC(=O)[C@@H]2C[C@@H](O)CN2C(=O)[C@H]([C@@H](C)O)NC1=O [caspofungin] | not seen | – | – | –
